Molecular target: T1, CusB (Escherichia coli, UniProt P77239, A236C/A248C)
T1 construct: intein (cleaved yes); made in house; host or cells: E. coli BL21 (DE3)
Test: DEER distance distribution measurements on spin-labeled CusB
Set-up: species or system E. coli
Details: CusB spin labeled (MTSSL) at A236C and A248C; Cu(I):CusB 3:1; Q-band DEER at 50 K; apo-CusB 2.5 ± 0.5 nm, holo-CusB 2.8 ± 0.3 nm
Method: Before labeling, 10 mM DTT was added to the protein solution and mixed overnight at 4°C. DTT was dialyzed out using a Microsep Advanced Centrifugal Device (Pall, Port Washington, NY, USA) applied to samples of up to 5 mL in lysis buffer, with a 3-kDa molecular weight cutoff. Next, 0.25 mg of S-(2,2,5,5-tetramethyl-2,5-dihydro-1H-pyrrol-3-yl)methyl methanesulfonothioate (MTSSL, TRC) was dissolved in 15 μL Dimethyl sulfoxide (DMSO) and added to 0.75 ml of 0.01 mM protein solution (20-fold molar excess of MTSSL). The protein solution was then vortexed overnight at 4°C. The free spin label and Cu(I) ions were removed by several dialysis cycles over 4 days. […] The concentration was determined with a Lowry assay. […]
A constant-time four-pulse double electron-electron resonance (DEER) experiment with pulse sequence π/2(νobs)-τ1-π(νobs)-t′−π(νpump)-(τ1 + τ2 − t′)-π(νobs)-τ2(νobs)-τ2-echo was performed at (50 ± 0.5 K) on a Q-band Elexsys E580 equipped with a 2-mm probe head; bandwidth, 220 MHz. […] The echo was measured as a function of t′, and τ2 was kept constant to eliminate relaxation effects. […] The samples were measured in 1.6-mm quartz capillary tubes (Wilmad-Labglass, Vineland, NJ, USA). The data were analyzed with the DeerAnalysis 2016 program and with Tikhonov regularization. […]

## AKIQG [pep8]
  DEER distance distribution of CusB bound to peptide and incubated with Cu(I): around 3.2 nm

— publication PMC6936879, “Inhibiting the copper efflux system in microbes as a novel approach for developing antibiotics” (PLoS ONE, 2019)
